Species on record: Homo sapiens
Assay: Ratio of Ki for wild type human PNMT to Ki for human PNMT K57 mutant

NS(=O)(=O)c1ccc2c(c1)CNCC2
Ratio Ki: 0.02

Reference: ChEMBL document CHEMBL1148804, “Enzyme adaptation to inhibitor binding: a cryptic binding site in phenylethanolamine N-methyltransferase” (J Med Chem, 2007)
